Experiment: Clinical laboratory findings: chemistry; data mean (standard deviation)
Format: in vivo, healthy men
Description: Data are mean (standard deviation).

C[C@@H](N)c1cc(Cl)ccc1Cn1c(=S)[nH]c(=O)c2[nH]ccc21 [AZD4831]
ALP (45 mg fed, 24 h): 0.993 (0.202) µkat L^–1 | ALT (45 mg fed, 24 h): 0.324 (0.125) µkat L^–1 | AST (45 mg fed, 24 h): 0.281 (0.048) µkat L^–1 | Albumin (45 mg fed, 24 h): 41.2 (3.8) g L^–1 | Bilirubin (45 mg fed, 24 h): 9.7 (0.6) µmol L^–1 | CRP (45 mg fed, 24 h): 0.42 (0.20) mg L^–1 | Calcium (45 mg fed, 24 h): 2.30 (0.10) mmol L^–1 | Creatinine (45 mg fed, 24 h): 71.2 (11.4) µmol L^–1 | GGT (45 mg fed, 24 h): 0.310 (0.053) µkat L^–1 | Glucose (45 mg fed, 24 h): 5.06 (0.38) mmol L^–1 | Phosphate (45 mg fed, 24 h): 1.10 (0.08) mmol L^–1 | Potassium (45 mg fed, 24 h): 4.28 (0.26) mmol L^–1 | Sodium (45 mg fed, 24 h): 139.6 (1.6) mmol L^–1 | Urea (45 mg fed, 24 h): 4.04 (0.45) mmol L^–1 | ALP (45 mg fed, 48 h): 1.004 (0.205) µkat L^–1 | ALT (45 mg fed, 48 h): 0.325 (0.119) µkat L^–1 | AST (45 mg fed, 48 h): 0.296 (0.053) µkat L^–1 | Albumin (45 mg fed, 48 h): 42.1 (3.4) g L^–1 | Bilirubin (45 mg fed, 48 h): 9.5 (1.3) µmol L^–1 | CRP (45 mg fed, 48 h): 0.42 (0.22) mg L^–1 | Calcium (45 mg fed, 48 h): 2.33 (0.07) mmol L^–1 | Creatinine (45 mg fed, 48 h): 70.9 (9.3) µmol L^–1 | GGT (45 mg fed, 48 h): 0.303 (0.051) µkat L^–1 | Glucose (45 mg fed, 48 h): 5.27 (0.13) mmol L^–1 | Phosphate (45 mg fed, 48 h): 1.09 (0.05) mmol L^–1 | Potassium (45 mg fed, 48 h): 4.27 (0.05) mmol L^–1 | Sodium (45 mg fed, 48 h): 140.1 (1.4) mmol L^–1 | Urea (45 mg fed, 48 h): 4.19 (0.41) mmol L^–1 | ALP (45 mg fed, follow up): 1.103 (0.265) µkat L^–1 | ALT (45 mg fed, follow up): 0.364 (0.151) µkat L^–1 | AST (45 mg fed, follow up): 0.358 (0.049) µkat L^–1 | Albumin (45 mg fed, follow up): 44.1 (3.2) g L^–1 | Bilirubin (45 mg fed, follow up): 9.6 (2.3) µmol L^–1 | CRP (45 mg fed, follow up): 2.35 (3.10) mg L^–1 | Calcium (45 mg fed, follow up): 2.34 (0.08) mmol L^–1 | Creatinine (45 mg fed, follow up): 74.6 (5.0) µmol L^–1 | GFR (45 mg fed, follow up): 109 (15) mL min^–1 1.73m^–2 | GGT (45 mg fed, follow up): 0.316 (0.087) µkat L^–1 | Glucose (45 mg fed, follow up): 5.18 (0.25) mmol L^–1 | Phosphate (45 mg fed, follow up): 1.08 (0.11) mmol L^–1 | Potassium (45 mg fed, follow up): 4.34 (0.20) mmol L^–1 | Sodium (45 mg fed, follow up): 139.6 (0.6) mmol L^–1 | Urea (45 mg fed, follow up): 4.18 (0.78) mmol L^–1 | ALP (135 mg fasted, 24 h): 1.128 (0.226) µkat L^–1 | ALT (135 mg fasted, 24 h): 0.323 (0.137) µkat L^–1 | AST (135 mg fasted, 24 h): 0.304 (0.076) µkat L^–1 | Albumin (135 mg fasted, 24 h): 43.4 (2.4) g L^–1 | Bilirubin (135 mg fasted, 24 h): 12.2 (4.3) µmol L^–1 | CRP (135 mg fasted, 24 h): 0.60 (0.30) mg L^–1 | Calcium (135 mg fasted, 24 h): 2.36 (0.08) mmol L^–1 | Creatinine (135 mg fasted, 24 h): 83.6 (8.7) µmol L^–1 | GGT (135 mg fasted, 24 h): 0.318 (0.171) µkat L^–1 | Glucose (135 mg fasted, 24 h): 4.74 (0.58) mmol L^–1 | Phosphate (135 mg fasted, 24 h): 1.06 (0.23) mmol L^–1 | Potassium (135 mg fasted, 24 h): 4.11 (0.11) mmol L^–1 | Sodium (135 mg fasted, 24 h): 139.8 (0.7) mmol L^–1 | Urea (135 mg fasted, 24 h): 4.50 (0.56) mmol L^–1 | ALP (135 mg fasted, 48 h): 1.175 (0.250) µkat L^–1 | ALT (135 mg fasted, 48 h): 0.325 (0.191) µkat L^–1 | AST (135 mg fasted, 48 h): 0.308 (0.101) µkat L^–1 | Albumin (135 mg fasted, 48 h): 43.9 (2.8) g L^–1 | Bilirubin (135 mg fasted, 48 h): 11.6 (3.5) µmol L^–1 | CRP (135 mg fasted, 48 h): 0.50 (0.26) mg L^–1 | Calcium (135 mg fasted, 48 h): 2.37 (0.07) mmol L^–1 | Creatinine (135 mg fasted, 48 h): 81.0 (9.1) µmol L^–1 | GGT (135 mg fasted, 48 h): 0.325 (0.161) µkat L^–1 | Glucose (135 mg fasted, 48 h): 4.75 (0.37) mmol L^–1 | Phosphate (135 mg fasted, 48 h): 1.01 (0.19) mmol L^–1 | Potassium (135 mg fasted, 48 h): 4.06 (0.17) mmol L^–1 | Sodium (135 mg fasted, 48 h): 140.3 (1.4) mmol L^–1 | Urea (135 mg fasted, 48 h): 4.24 (0.74) mmol L^–1 | ALP (135 mg fasted, follow up): 1.239 (0.208) µkat L^–1 | ALT (135 mg fasted, follow up): 0.299 (0.129) µkat L^–1 | AST (135 mg fasted, follow up): 0.332 (0.064) µkat L^–1 | Albumin (135 mg fasted, follow up): 46.0 (2.6) g L^–1 | Bilirubin (135 mg fasted, follow up): 13.1 (5.1) µmol L^–1 | CRP (135 mg fasted, follow up): 8.94 (12.69) mg L^–1 | Calcium (135 mg fasted, follow up): 2.36 (0.11) mmol L^–1 | Creatinine (135 mg fasted, follow up): 85.1 (12.7) µmol L^–1 | GFR (135 mg fasted, follow up): 104 (22) mL min^–1 1.73m^–2 | GGT (135 mg fasted, follow up): 0.306 (0.143) µkat L^–1 | Glucose (135 mg fasted, follow up): 4.71 (0.54) mmol L^–1 | Phosphate (135 mg fasted, follow up): 1.00 (0.21) mmol L^–1 | Potassium (135 mg fasted, follow up): 4.07 (0.20) mmol L^–1 | Sodium (135 mg fasted, follow up): 140.2 (2.1) mmol L^–1 | Urea (135 mg fasted, follow up): 4.15 (1.35) mmol L^–1 | ALP (405 mg fasted, 24 h): 0.958 (0.139) µkat L^–1 | ALT (405 mg fasted, 24 h): 0.338 (0.119) µkat L^–1 | AST (405 mg fasted, 24 h): 0.363 (0.077) µkat L^–1 | Albumin (405 mg fasted, 24 h): 43.7 (2.3) g L^–1 | Bilirubin (405 mg fasted, 24 h): 14.9 (2.3) µmol L^–1 | CRP (405 mg fasted, 24 h): 1.17 (1.28) mg L^–1 | Calcium (405 mg fasted, 24 h): 2.39 (0.06) mmol L^–1 | Creatinine (405 mg fasted, 24 h): 86.2 (14.7) µmol L^–1 | GGT (405 mg fasted, 24 h): 0.298 (0.146) µkat L^–1 | Glucose (405 mg fasted, 24 h): 4.77 (0.30) mmol L^–1 | Phosphate (405 mg fasted, 24 h): 1.07 (0.11) mmol L^–1 | Potassium (405 mg fasted, 24 h): 4.42 (0.31) mmol L^–1 | Sodium (405 mg fasted, 24 h): 139.2 (1.0) mmol L^–1 | Urea (405 mg fasted, 24 h): 4.55 (1.01) mmol L^–1 | ALP (405 mg fasted, 48 h): 0.947 (0.186) µkat L^–1 | ALT (405 mg fasted, 48 h): 0.351 (0.097) µkat L^–1 | AST (405 mg fasted, 48 h): 0.366 (0.075) µkat L^–1 | Albumin (405 mg fasted, 48 h): 44.2 (2.7) g L^–1 | Bilirubin (405 mg fasted, 48 h): 13.4 (2.1) µmol L^–1 | CRP (405 mg fasted, 48 h): 1.19 (1.17) mg L^–1 | Calcium (405 mg fasted, 48 h): 2.40 (0.06) mmol L^–1 | Creatinine (405 mg fasted, 48 h): 81.1 (13.0) µmol L^–1 | GGT (405 mg fasted, 48 h): 0.290 (0.133) µkat L^–1 | Glucose (405 mg fasted, 48 h): 4.88 (0.35) mmol L^–1 | Phosphate (405 mg fasted, 48 h): 1.06 (0.15) mmol L^–1 | Potassium (405 mg fasted, 48 h): 4.33 (0.33) mmol L^–1 | Sodium (405 mg fasted, 48 h): 139.6 (1.0) mmol L^–1 | Urea (405 mg fasted, 48 h): 4.68 (1.07) mmol L^–1 | ALP (405 mg fasted, follow up): 1.037 (0.190) µkat L^–1 | ALT (405 mg fasted, follow up): 0.346 (0.071) µkat L^–1 | AST (405 mg fasted, follow up): 0.398 (0.062) µkat L^–1 | Albumin (405 mg fasted, follow up): 46.6 (2.7) g L^–1 | Bilirubin (405 mg fasted, follow up): 13.2 (3.1) µmol L^–1 | CRP (405 mg fasted, follow up): 1.17 (0.86) mg L^–1 | Calcium (405 mg fasted, follow up): 2.43 (0.10) mmol L^–1 | Creatinine (405 mg fasted, follow up): 81.1 (12.2) µmol L^–1 | GFR (405 mg fasted, follow up): 104 (12) mL min^–1 1.73m^–2 | GGT (405 mg fasted, follow up): 0.298 (0.137) µkat L^–1 | Glucose (405 mg fasted, follow up): 4.63 (0.39) mmol L^–1 | Phosphate (405 mg fasted, follow up): 1.12 (0.17) mmol L^–1 | Potassium (405 mg fasted, follow up): 4.39 (0.18) mmol L^–1 | Sodium (405 mg fasted, follow up): 141.5 (2.6) mmol L^–1 | Urea (405 mg fasted, follow up): 3.87 (0.96) mmol L^–1 | changes in clinical chemistry, haematology or urinary parameters (except serum uric acid at 135 mg or 405 mg): no systemic or dose‐related changes

Source: PMC6422671 (British Journal of Clinical Pharmacology, 2019)
